The species named for one experiment is Homo sapiens. Put plainly: Selectivity index, ratio of IC50 for recombinant TRIM24 (unknown origin) to IC50 for recombinant TRIM33 PHD bromodomain (unknown origin).
The target of experiment [1] is T1, E3 ubiquitin-protein ligase TRIM33 (Homo sapiens, UniProt Q9UPN9).
T1 sequence (Q9UPN9 whole entry): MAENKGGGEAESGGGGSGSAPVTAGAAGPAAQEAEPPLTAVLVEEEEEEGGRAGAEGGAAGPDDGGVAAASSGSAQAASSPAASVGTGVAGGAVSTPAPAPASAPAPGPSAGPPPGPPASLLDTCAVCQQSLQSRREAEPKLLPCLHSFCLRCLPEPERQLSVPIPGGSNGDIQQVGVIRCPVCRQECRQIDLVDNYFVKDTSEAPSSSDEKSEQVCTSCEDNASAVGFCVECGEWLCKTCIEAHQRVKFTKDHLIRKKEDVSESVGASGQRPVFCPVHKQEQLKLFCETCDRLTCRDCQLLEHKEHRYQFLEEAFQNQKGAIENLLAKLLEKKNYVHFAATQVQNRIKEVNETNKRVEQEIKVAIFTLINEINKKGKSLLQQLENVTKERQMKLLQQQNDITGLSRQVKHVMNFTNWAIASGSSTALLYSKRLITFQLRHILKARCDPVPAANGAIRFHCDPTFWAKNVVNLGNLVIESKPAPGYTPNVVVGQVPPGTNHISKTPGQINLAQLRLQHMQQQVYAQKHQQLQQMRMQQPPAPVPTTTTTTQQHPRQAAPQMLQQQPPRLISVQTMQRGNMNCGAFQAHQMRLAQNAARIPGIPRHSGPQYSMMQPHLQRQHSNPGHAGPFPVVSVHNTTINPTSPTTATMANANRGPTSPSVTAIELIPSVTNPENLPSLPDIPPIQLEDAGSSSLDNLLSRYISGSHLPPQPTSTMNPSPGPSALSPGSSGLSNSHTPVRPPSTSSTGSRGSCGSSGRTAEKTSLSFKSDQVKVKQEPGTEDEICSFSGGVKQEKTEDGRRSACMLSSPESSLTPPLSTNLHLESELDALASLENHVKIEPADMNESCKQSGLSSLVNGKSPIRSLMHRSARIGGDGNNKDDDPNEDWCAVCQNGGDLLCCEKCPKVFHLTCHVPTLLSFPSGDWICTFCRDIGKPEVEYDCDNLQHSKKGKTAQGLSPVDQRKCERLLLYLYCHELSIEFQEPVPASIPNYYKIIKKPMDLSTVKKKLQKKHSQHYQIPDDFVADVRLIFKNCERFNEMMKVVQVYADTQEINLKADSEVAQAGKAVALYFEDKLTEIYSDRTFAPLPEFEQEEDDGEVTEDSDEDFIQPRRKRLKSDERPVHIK
Put plainly: Inhibition of recombinant TRIM33 PHD bromodomain (unknown origin) using biotinylated H3 peptide (H3K9me3K18ac) by AlphaScreen assay.

The target in experiment [2] is T2, Transcription intermediary factor 1-alpha (Homo sapiens, UniProt O15164).
T2 sequence (O15164 whole entry): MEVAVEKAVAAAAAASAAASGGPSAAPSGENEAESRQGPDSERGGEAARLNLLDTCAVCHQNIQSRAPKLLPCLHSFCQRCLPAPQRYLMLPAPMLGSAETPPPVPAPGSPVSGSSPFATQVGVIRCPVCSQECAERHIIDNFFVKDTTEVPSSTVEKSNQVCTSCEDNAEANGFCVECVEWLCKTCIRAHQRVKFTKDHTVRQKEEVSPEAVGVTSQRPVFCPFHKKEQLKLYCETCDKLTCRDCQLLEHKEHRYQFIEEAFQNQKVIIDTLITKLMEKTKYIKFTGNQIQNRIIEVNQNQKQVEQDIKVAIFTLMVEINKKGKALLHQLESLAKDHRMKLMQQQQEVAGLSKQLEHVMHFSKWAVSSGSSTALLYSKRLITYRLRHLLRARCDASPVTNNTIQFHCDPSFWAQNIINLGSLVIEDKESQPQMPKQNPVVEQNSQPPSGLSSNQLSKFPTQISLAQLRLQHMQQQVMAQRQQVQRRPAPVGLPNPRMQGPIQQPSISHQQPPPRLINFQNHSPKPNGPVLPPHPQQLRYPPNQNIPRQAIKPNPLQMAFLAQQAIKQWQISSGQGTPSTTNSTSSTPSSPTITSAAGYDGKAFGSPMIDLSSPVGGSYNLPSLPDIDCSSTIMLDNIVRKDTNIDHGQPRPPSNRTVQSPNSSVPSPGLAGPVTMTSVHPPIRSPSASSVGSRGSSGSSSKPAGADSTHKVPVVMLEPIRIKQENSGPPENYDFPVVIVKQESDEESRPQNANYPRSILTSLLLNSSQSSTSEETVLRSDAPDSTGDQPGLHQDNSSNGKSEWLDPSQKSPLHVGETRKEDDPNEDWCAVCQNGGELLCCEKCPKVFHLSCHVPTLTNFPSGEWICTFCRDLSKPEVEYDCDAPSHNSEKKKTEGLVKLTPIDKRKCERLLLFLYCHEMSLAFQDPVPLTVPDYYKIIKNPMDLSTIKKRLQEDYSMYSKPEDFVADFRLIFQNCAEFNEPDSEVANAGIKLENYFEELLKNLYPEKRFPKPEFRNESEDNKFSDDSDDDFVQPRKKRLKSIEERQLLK
Put plainly: Inhibition of recombinant TRIM24 (unknown origin) using biotinylated H3 peptide (H3K9me3K18ac) by AlphaScreen assay. For orientation: In Alpha technology, singlet oxygen from a donor bead excites a nearby acceptor bead.

Each structure is given as a SMILES string.

As for `COC(=O)c1ccc2nc(-c3c[nH]c(C)n3)c(Nc3ccc(OC)cc3)n2c1`, in the experiment filed under Homo sapiens, the Ratio IC50 was found to be 13. Further, the IC50 worked out at 8.57 µM in experiment [1] and 111 µM in experiment [2].
For `COC(=O)c1ccc2nc(-c3ccc4nccn4c3)c(NCCc3ccc(OC)c(OC)c3)n2c1`, in that order: 380, 15.7 µM and 5980 µM.
Regarding `CCCOc1ccn2c(C(C)=O)cc(-c3nc4ccc(C(=O)OC)cn4c3NCc3ccc(C#N)cc3)c2c1`, the Ratio IC50 in the experiment filed under Homo sapiens is 515. In addition, the IC50 in experiment [1] is 65.1 µM.
Turning to `Cc1[nH]cnc1-c1nc2ccccn2c1NCc1ccc(C#N)cc1`, in the experiment listed under Homo sapiens, the Ratio IC50 amounted to 2.61. In addition, the values for the IC50 in experiment [1] and in experiment [2] were 16.4 µM and 42.8 µM, respectively.
For `Cc1nc(-c2nc3ccccn3c2NCCN2CCOCC2)c[nH]1`, in that order: 8.73, 27.8 µM and 242 µM.
On to `COc1ccc(Nc2c(-c3ccc4nccn4c3)nc3ccccn23)cc1`, for which the Ratio IC50 in the experiment listed under Homo sapiens was found to be 5.88. Moreover, the IC50 in experiment [1] was found to be 26 µM; in experiment [2], 153 µM.
For `COCCNc1c(-c2nc[nH]c2C)nc2cnccn12`, the Ratio IC50 in the experiment filed under Homo sapiens was 115. Moreover, in experiment [1], the IC50 stood at 204 µM.
With `COc1ccc(CCNc2c(-c3ccc4nccn4c3)nc3cnccn23)cc1OC`, in the experiment listed under Homo sapiens, the Ratio IC50 was determined as 1.9. Besides, the IC50 in experiment [1] came to 29.7 µM.
For the molecule `Cc1nc(-c2nc3ccc(Br)cn3c2NC2CCCCC2)c[nH]1`, the Ratio IC50 in the experiment listed under Homo sapiens is 3.62. Moreover, the IC50 in experiment [1] turned out to be 3.6 µM; in experiment [2] it was 13 µM.
Take `COCCNc1c(-c2ccc3nccn3c2)nc2ccc(Br)cn12`: the Ratio IC50 in the experiment listed under Homo sapiens was found to be 4.53. For the same molecule, the half-inhibitory concentration (IC50) in experiment [1] turned out to be 156 µM; in experiment [2], 706 µM.
For `N#Cc1ccc(CNc2c(-c3ccc4nccn4c3)nc3cnccn23)cc1`, in that order: 17.7, 46.1 µM and 818 µM.
For `COc1ccc(Nc2c(-c3ccc4nccn4c3)nc3ccc(Br)cn23)cc1`, in that order: 3.19, 70.3 µM and 224 µM.
For the molecule `COCCNc1c(-c2c[nH]c(C)n2)nc2ccccn12`, in the experiment listed under Homo sapiens, the Ratio IC50 is 8.16. Besides, the IC50 in experiment [1] was found to be 17.2 µM; in experiment [2] it was 141 µM.
For `Cc1nc(-c2nc3cnccn3c2NCCN2CCOCC2)c[nH]1`, in that order: 14.5, 131 µM and 1890 µM.
For `COC(=O)c1ccc2nc(-c3nc[nH]c3C)c(Nc3ccc(OC)cc3)n2c1`, the Ratio IC50 in the experiment listed under Homo sapiens was found to be 3.99. Further, the IC50 in experiment [1] amounted to 19.3 µM; in experiment [2] it was 77.2 µM.
For the molecule `COc1ccc(CCNc2c(-c3nc[nH]c3C)nc3ccccn23)cc1OC`, the Ratio IC50 in the experiment listed under Homo sapiens turned out to be 23.2. The IC50 in experiment [1] was 1.36 µM; in experiment [2] it was 31.7 µM.
With `Cc1nc(-c2nc3ccc(Br)cn3c2NCc2ccc(C#N)cc2)c[nH]1`, the Ratio IC50 in the experiment listed under Homo sapiens amounted to 7.21. Moreover, the figures for the IC50 in experiment [1] and in experiment [2] were 11.3 µM and 81.7 µM, respectively.
Regarding `Cc1nc(-c2nc3ccc(Br)cn3c2NCCN2CCOCC2)c[nH]1`, in the experiment listed under Homo sapiens, the Ratio IC50 is 0.43. For the same molecule, the IC50 in experiment [1] stood at 450 µM; in experiment [2], 194 µM.
Consider `COC(=O)c1ccc2nc(-c3nc[nH]c3C)c(NCCN3CCOCC3)n2c1`, for which the Ratio IC50 in the experiment listed under Homo sapiens was determined as 11.8.
In the case of `CCCOc1ccn2c(C(C)=O)cc(-c3nc4ccccn4c3NC3CCCCC3)c2c1`, in the experiment filed under Homo sapiens, the Ratio IC50 was 16.2. The IC50 was found to be 8.72 µM in experiment [1] and 142 µM in experiment [2].
For `CCCOc1ccn2c(C(C)=O)cc(-c3nc4ccccn4c3NCCOC)c2c1`, in that order: 9.36, 47.5 µM and 445 µM.
For `c1ccn2c(NC3CCCCC3)c(-c3ccc4nccn4c3)nc2c1`, in that order: 18.1, 13.8 µM and 249 µM.
For `Cc1nc(-c2nc3cnccn3c2NCc2ccc(C#N)cc2)c[nH]1`, in that order: 0.26, 207 µM and 54.8 µM.
Take `COC(=O)c1ccc2nc(-c3ccc4nccn4c3)c(NCc3ccc(C#N)cc3)n2c1`: in the experiment filed under Homo sapiens, the Ratio IC50 worked out at 486. For the same molecule, the IC50 in experiment [1] was determined as 125 µM.
Turning to `COc1ccc(Nc2c(-c3c[nH]c(C)n3)nc3ccccn23)cc1`, the Ratio IC50 in the experiment listed under Homo sapiens was 538. For the same molecule, the IC50 in experiment [1] is 0.00319 µM; in experiment [2], 1.71 µM.
For `Cc1[nH]cnc1-c1nc2cnccn2c1NCc1ccc(C#N)cc1`, in that order: 0.82, 121 µM and 98.4 µM.
For `COC(=O)c1ccc2nc(-c3c[nH]c(C)n3)c(NC3CCCCC3)n2c1`, the Ratio IC50 in the experiment filed under Homo sapiens was 9.48. Also, the IC50 stood at 18.9 µM in experiment [1] and 180 µM in experiment [2].
For the molecule `c1cn2c(NCCN3CCOCC3)c(-c3ccc4nccn4c3)nc2cn1`, the Ratio IC50 in the experiment filed under Homo sapiens came out at 8.45. Further, the IC50 in experiment [1] was determined as 259 µM; in experiment [2], 2190 µM.
Regarding `Cc1nc(-c2nc3ccccn3c2NC2CCCCC2)c[nH]1`, the Ratio IC50 in the experiment filed under Homo sapiens came out at 16.4. Also, the IC50 in experiment [1] is 5.9 µM; in experiment [2], 96.5 µM.
As for `COCCNc1c(-c2nc[nH]c2C)nc2ccccn12`, in the experiment filed under Homo sapiens, the Ratio IC50 worked out at 2.17. The figures for the 50% inhibitory concentration (IC50) in experiment [1] and in experiment [2] were 16.3 µM and 35.4 µM, respectively.
`CCCOc1ccn2c(C(C)=O)cc(-c3nc4ccccn4c3NCCc3ccc(OC)c(OC)c3)c2c1`: the Ratio IC50 in the experiment listed under Homo sapiens was determined as 17.1. Further, the results for the IC50 in experiment [1] and in experiment [2] were 21.7 µM and 372 µM, respectively.
Turning to `CCCOc1ccn2c(C(C)=O)cc(-c3nc4ccccn4c3NCCN3CCOCC3)c2c1`, the Ratio IC50 in the experiment filed under Homo sapiens amounted to 3.6. Further, the IC50 in experiment [1] was 69.6 µM; in experiment [2] it was 250 µM.
For `c1ccn2c(NCCN3CCOCC3)c(-c3ccc4nccn4c3)nc2c1`, the Ratio IC50 in the experiment filed under Homo sapiens stood at 48.4. Also, in experiment [1], the half-maximal inhibitory concentration (IC50) was 366 µM.
For the molecule `Cc1[nH]cnc1-c1nc2ccccn2c1NCCN1CCOCC1`, the Ratio IC50 in the experiment filed under Homo sapiens was determined as 13.3.
With `COCCNc1c(-c2ccc3nccn3c2)nc2ccccn12`, the Ratio IC50 in the experiment filed under Homo sapiens was determined as 41.7. Further, the IC50 in experiment [1] was determined as 139 µM; in experiment [2], 5800 µM.
In the case of `Cc1[nH]cnc1-c1nc2ccccn2c1NC1CCCCC1`, the Ratio IC50 in the experiment listed under Homo sapiens amounted to 8.45.
For the molecule `COc1ccc(Nc2c(-c3nc[nH]c3C)nc3ccc(Br)cn23)cc1`, the Ratio IC50 in the experiment filed under Homo sapiens is 189.
In the case of `COc1ccc(Nc2c(-c3nc[nH]c3C)nc3ccccn23)cc1`, the Ratio IC50 in the experiment listed under Homo sapiens came to 5.35.
With `COc1ccc(C=O)c(O)c1`, the values for the IC50 in experiment [1] and in experiment [2] were 0.301 µM and 0.22 µM, respectively.
Regarding `Cc1ncc(CO)c(C=O)c1O`, the IC50 in experiment [1] was determined as 0.283 µM; in experiment [2] it was 0.225 µM.
In the case of `O=C1CCCCCCC1` [CYCLOOCTANONE], the IC50 in experiment [1] worked out at 0.25 µM; in experiment [2] it was 0.166 µM.

One may read the IC50 as the concentration that inhibits the measured activity by half.

Values taken from ChEMBL document CHEMBL4418499, “Inhibitors of trim33 and methods of use” (2018).
